Calls of active or inactive are those of the source. No cut-off for these calls is given here.
How the values were obtained:
[1] = Toxicity in SCID male mouse xenografted with human LNCaP/AR cells assessed as tolerability at 10 mg/kg, po administered once daily for 28 days and measured every 3 days; type: organism-based; conditions: in vivo, 672 h, time 28 day
[2] = target: T1, Steroid 17-alpha-hydroxylase/17,20 lyase (Homo sapiens, UniProt P05093); experiment: Inhibition of recombinant human CYP17A1 using progesterone as substrate incubated for 5 mins in presence of NADPH by LC-MS/MS analysis; type: ADME
T1 sequence (P05093 whole entry): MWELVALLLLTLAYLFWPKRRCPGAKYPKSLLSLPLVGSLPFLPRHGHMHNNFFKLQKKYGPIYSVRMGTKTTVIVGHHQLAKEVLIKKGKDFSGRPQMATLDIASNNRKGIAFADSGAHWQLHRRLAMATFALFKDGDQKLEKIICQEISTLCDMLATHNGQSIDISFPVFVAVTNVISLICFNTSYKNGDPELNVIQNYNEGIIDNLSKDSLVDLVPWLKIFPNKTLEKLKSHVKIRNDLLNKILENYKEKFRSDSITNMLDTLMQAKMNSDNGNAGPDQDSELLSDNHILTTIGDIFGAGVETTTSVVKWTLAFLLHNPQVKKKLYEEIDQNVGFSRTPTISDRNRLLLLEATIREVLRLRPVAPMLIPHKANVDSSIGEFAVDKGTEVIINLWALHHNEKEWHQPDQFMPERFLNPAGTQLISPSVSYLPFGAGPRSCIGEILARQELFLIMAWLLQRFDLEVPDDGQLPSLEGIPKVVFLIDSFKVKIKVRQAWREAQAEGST

[3] = Effect on androgen sensitive organs in testosterone propionate stimulated castrated male Sprague-Dawley rat assessed as ventral prostate weight loss at 20 mg/kg, po administered once daily for 10 days and measured 24 hrs post last dose; type: functional; conditions: time 11 day
LNCaP = experiment: Antiproliferative activity against human LNCaP cells incubated for 6 days by CellTiter-Glo assay; type: functional, cell-based
[4] = Antitumor activity against human LNCaP/AR cells xenografted in SCID male mouse assessed as tumor growth inhibition at 10 mg/kg, po administered once daily for 28 days and measured every 3 days; type: functional; conditions: Homo sapiens, LNCaP/AR, 672 h, time 28 day, read-out: TGI
Mus musculus = experiment: In vivo induction of androgen receptor in human LNCaP/AR cells xenografted in SCID mouse assessed as reduction in PSA level at 10 mg/kg, po administered once daily for 28 days by ELISA; type: functional, organism-based; conditions: time 28.0 day
[5] = Toxicity in SCID male mouse xenografted with human LNCaP/AR cells assessed as animal weight loss at 10 mg/kg, po administered once daily for 28 days and measured every 3 days; type: organism-based; conditions: in vivo, 672 h, time 28 day
[6] = target: Androgen receptor (Homo sapiens) (UniProt P10275); experiment: In vivo induction of androgen receptor in human LNCaP/AR cells xenografted in SCID mouse assessed as reduction in AR protein level at 10 mg/kg, po administered once daily for 28 days by ELISA; conditions: time 28.0 day
[7] = target: Voltage-gated inwardly rectifying potassium channel KCNH2 (Homo sapiens, UniProt Q12809); experiment: Inhibition of human ERG by patch clamp assay; type: toxicity
Sequence of Voltage-gated inwardly rectifying potassium channel KCNH2 (Q12809 whole entry): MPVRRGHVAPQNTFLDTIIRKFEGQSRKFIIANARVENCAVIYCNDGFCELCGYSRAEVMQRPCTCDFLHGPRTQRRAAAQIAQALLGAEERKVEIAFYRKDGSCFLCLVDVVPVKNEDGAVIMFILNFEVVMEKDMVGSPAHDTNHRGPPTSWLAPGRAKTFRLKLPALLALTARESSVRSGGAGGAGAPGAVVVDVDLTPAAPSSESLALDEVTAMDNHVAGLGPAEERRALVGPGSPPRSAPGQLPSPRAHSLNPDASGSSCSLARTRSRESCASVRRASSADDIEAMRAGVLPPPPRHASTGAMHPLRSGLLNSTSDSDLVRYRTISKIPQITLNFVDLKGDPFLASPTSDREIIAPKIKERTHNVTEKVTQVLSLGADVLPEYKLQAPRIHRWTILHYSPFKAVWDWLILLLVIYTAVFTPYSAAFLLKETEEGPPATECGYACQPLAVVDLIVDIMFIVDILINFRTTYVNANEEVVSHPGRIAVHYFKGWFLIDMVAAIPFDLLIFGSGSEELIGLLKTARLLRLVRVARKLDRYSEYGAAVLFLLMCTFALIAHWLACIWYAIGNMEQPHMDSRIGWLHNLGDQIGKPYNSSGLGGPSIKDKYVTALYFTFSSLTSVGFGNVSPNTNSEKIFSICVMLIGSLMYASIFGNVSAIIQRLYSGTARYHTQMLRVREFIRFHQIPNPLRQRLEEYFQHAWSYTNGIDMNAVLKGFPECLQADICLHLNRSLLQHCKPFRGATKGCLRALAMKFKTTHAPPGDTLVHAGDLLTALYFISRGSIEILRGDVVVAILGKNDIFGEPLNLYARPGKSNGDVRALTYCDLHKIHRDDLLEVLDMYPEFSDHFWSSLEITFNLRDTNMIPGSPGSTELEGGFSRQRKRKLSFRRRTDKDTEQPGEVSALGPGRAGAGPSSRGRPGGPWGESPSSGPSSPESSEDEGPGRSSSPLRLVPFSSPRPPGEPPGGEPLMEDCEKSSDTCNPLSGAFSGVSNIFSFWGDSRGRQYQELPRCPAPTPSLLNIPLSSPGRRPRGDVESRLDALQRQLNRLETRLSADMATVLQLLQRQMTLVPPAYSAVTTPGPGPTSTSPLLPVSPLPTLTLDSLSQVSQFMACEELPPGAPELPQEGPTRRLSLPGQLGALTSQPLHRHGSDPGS

[8] = Cmax in Sprague-Dawley rat at 10 mg/kg, po measured upto 24 hrs by LC-MS/MS analysis; type: ADME, organism-based; parameters: dose 10 mg/kg, time < 24 hrs, route po; conditions: in vivo
[9] = Effect on androgen sensitive organs in testosterone propionate stimulated castrated male Sprague-Dawley rat assessed as seminal vesicles weight loss at 20 mg/kg, po administered once daily for 10 days and measured 24 hrs post last dose; type: functional; conditions: time 11 day
[10] = target: T2, Androgen receptor (Homo sapiens) (UniProt P10275); experiment: Potency index, ratio of galeterone DC50 to test compound DC50 for induction of androgen receptor degradation in human LNCaP cells; type: cell-based
T2 sequence (whole entry): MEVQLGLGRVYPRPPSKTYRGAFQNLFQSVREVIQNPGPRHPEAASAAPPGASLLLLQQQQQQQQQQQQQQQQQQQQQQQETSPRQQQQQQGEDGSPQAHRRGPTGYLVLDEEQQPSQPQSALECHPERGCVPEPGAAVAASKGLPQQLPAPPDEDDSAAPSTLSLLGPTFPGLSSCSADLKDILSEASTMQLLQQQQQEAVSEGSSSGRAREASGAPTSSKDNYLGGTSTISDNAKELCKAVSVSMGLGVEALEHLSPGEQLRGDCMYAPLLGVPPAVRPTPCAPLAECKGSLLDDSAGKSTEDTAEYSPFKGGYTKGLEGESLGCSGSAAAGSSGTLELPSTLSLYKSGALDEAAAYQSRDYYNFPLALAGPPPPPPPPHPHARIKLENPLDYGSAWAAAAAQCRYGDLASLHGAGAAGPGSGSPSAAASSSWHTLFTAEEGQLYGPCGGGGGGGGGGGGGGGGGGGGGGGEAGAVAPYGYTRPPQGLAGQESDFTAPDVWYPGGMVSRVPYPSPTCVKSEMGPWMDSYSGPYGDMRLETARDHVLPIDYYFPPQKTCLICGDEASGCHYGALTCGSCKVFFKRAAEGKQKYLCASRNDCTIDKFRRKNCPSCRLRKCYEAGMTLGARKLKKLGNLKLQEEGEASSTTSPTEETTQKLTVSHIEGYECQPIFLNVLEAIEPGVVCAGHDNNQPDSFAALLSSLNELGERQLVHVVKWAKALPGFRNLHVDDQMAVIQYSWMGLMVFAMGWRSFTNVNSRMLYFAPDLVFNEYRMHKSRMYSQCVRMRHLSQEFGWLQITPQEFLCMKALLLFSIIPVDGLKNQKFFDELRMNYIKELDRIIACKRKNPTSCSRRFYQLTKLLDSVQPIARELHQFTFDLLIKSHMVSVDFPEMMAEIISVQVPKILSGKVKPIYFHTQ

[11] = Tmax in Sprague-Dawley rat at 10 mg/kg, po measured upto 24 hrs by LC-MS/MS analysis; type: ADME, organism-based; conditions: in vivo
Androgen receptor = target: T3, Androgen receptor (Homo sapiens, UniProt P10275); experiment: Induction of androgen receptor degradation in human LNCaP cells incubated for 24 hrs by ELISA; type: cell-based
T3 sequence (P10275 whole entry): T2 sequence (whole entry)

[12] = Half life in Sprague-Dawley rat at 10 mg/kg, po measured upto 24 hrs by LC-MS/MS analysis; type: ADME, organism-based; conditions: in vivo
[13] = test system: Androgen receptor (Homo sapiens), P10275 [F877L]; experiment: Antagonist activity at androgen receptor F876L mutant expressed in HEK293 cells assessed as reduction in DHT-induced transcriptional activation of androgen receptor incubated for 24 hrs by Steady-Glo assay relative to control; type: cell-based; parameters: scale not given: the % may be the effect or the level left; conditions: filed as antagonist
Sequence of Androgen receptor (Homo sapiens), P10275 [F877L] (P10275 whole entry F877L): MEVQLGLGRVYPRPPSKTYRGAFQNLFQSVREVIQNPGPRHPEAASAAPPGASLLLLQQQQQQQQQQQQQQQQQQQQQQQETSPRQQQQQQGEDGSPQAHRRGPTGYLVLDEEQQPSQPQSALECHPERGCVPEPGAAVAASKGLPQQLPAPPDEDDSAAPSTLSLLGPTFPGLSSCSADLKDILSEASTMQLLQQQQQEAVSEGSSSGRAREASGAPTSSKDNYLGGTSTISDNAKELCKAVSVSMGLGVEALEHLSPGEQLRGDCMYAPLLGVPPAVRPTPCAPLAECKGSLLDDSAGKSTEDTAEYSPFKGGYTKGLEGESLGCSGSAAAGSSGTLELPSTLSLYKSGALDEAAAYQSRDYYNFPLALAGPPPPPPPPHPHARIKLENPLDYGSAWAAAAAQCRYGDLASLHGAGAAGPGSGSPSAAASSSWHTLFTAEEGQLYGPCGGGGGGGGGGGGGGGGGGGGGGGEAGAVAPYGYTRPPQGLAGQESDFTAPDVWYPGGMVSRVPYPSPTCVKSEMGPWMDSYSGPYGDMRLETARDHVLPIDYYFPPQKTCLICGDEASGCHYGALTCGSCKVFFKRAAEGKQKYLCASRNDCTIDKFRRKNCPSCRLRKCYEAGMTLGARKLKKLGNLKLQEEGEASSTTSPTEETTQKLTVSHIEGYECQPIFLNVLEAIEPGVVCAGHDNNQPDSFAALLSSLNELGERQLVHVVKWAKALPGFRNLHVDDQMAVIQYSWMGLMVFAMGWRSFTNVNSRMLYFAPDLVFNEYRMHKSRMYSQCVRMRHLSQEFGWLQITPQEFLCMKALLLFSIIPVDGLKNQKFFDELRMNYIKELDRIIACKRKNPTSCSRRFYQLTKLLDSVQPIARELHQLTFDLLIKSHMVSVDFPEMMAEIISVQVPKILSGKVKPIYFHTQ

[14] = AUC(0 to t) in Sprague-Dawley rat at 10 mg/kg, po measured upto 24 hrs by LC-MS/MS analysis; type: ADME, organism-based; conditions: in vivo
[15] = Mutagenicity in Salmonella typhimurium TA1537 in presence of liver S9 fraction by AMES test; type: toxicity, subcellular; conditions: salmonella enterica subsp. enterica serovar typhimurium
[16] = Mutagenicity in Salmonella typhimurium TA98 in absence of liver S9 fraction by AMES test; type: toxicity; conditions: salmonella enterica subsp. enterica serovar typhimurium
Glucocorticoid receptor = Glucocorticoid receptor (Homo sapiens, UniProt P04150); experiment: Antagonist activity at GR (unknown origin)
Sequence of Glucocorticoid receptor (P04150 whole entry): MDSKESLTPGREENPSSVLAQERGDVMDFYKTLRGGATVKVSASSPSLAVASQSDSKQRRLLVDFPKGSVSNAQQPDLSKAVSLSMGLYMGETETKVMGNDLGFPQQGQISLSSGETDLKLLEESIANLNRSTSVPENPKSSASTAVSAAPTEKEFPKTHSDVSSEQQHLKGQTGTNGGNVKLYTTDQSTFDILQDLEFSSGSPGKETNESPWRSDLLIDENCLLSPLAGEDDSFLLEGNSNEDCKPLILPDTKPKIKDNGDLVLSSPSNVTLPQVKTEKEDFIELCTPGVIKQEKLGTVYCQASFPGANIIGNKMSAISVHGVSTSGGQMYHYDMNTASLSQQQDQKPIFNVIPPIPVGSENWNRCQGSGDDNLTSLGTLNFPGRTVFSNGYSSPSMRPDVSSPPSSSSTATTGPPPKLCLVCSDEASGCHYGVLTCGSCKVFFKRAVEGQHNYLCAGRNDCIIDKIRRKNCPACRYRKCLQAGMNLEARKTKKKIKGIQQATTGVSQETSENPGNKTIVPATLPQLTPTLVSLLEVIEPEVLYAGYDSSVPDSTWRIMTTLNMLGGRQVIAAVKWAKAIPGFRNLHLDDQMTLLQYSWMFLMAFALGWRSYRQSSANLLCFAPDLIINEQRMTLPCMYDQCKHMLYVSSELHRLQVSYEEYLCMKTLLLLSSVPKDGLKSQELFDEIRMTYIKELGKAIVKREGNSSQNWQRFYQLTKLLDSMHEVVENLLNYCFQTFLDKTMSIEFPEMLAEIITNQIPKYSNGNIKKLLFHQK

[17] = Mutagenicity in Salmonella typhimurium TA100 in presence of liver S9 fraction by AMES test; type: toxicity, subcellular; conditions: salmonella enterica subsp. enterica serovar typhimurium
[18] = test system: GABA-A receptor; anion channel; experiment: Antagonist activity at GABA-A (unknown origin) at 40 uM relative to control; type: toxicity; conditions: human
[19] = Genotoxicity in CHL cells in absence of rat liver S9 fraction by micronucleus test; type: toxicity, cell-based, Cricetulus griseus; conditions: chinese hamster
Progesterone receptor = Progesterone receptor (Homo sapiens, UniProt P06401); experiment: Antagonist activity at PR (unknown origin)
Sequence of Progesterone receptor (P06401 whole entry): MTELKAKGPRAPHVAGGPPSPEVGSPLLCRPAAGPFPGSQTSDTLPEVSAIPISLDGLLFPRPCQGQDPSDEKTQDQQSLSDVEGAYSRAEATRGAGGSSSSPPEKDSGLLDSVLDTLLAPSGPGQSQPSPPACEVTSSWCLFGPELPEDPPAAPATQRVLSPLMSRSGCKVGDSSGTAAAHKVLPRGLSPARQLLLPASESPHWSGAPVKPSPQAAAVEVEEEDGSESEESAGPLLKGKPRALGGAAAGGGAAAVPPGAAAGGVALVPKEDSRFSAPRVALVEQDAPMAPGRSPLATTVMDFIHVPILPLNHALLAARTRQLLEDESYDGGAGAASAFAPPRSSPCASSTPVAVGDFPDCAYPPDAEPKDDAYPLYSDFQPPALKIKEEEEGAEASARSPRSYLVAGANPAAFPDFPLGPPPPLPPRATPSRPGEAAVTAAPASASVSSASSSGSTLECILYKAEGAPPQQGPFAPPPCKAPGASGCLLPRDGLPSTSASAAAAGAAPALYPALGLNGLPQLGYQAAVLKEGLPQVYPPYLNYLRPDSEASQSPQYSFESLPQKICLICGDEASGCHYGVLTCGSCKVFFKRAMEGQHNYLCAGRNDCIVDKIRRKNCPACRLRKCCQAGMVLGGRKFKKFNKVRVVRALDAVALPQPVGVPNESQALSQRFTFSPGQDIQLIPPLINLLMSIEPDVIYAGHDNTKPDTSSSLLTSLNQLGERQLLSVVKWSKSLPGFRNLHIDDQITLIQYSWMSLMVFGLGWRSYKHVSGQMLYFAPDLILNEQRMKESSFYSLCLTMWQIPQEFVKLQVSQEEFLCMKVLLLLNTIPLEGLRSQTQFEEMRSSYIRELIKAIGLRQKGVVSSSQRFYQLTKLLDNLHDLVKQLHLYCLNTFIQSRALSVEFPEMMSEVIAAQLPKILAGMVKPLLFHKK

[20] = Toxicity in SCID male mouse xenografted with human LNCaP/AR cells assessed as tolerability at 10 to 30 mg/kg, po administered once daily for 28 days and measured every 3 days; type: organism-based; conditions: in vivo, 672 h, dose 10-30 mg/kg, time 28 day
[21] = Mutagenicity in Salmonella typhimurium TA1537 in absence of liver S9 fraction by AMES test; type: toxicity; conditions: salmonella enterica subsp. enterica serovar typhimurium
[22] = Mutagenicity in Salmonella typhimurium TA1535 in presence of liver S9 fraction by AMES test; type: toxicity, subcellular; conditions: salmonella enterica subsp. enterica serovar typhimurium
Cytochrome P450 3A4 [23] = target: T4, Cytochrome P450 3A4 (Homo sapiens, UniProt P08684); experiment: Inhibition of CYP3A4 (unknown origin) using testosterone as substrate; type: ADME
T4 sequence (P08684 whole entry): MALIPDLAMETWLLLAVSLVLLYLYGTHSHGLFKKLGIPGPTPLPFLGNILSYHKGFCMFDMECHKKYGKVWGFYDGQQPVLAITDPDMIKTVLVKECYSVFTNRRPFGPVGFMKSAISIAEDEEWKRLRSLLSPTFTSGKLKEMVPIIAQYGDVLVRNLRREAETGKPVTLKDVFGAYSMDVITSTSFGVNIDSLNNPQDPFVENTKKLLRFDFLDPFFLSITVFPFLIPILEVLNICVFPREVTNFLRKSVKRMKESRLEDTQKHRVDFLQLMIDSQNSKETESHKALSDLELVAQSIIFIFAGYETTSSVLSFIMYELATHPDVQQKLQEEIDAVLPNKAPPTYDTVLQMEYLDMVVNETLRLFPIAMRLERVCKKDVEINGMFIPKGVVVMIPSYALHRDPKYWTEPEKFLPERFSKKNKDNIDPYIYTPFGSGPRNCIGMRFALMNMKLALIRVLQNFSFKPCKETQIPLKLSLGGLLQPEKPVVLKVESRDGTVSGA

Cytochrome P450 3A4 [24] = target: T4, Cytochrome P450 3A4; experiment: Inhibition of CYP3A4 (unknown origin) using midazolam substrate; type: ADME
Cytochrome P450 2C19 = Cytochrome P450 2C19 (Homo sapiens, UniProt P33261); experiment: Inhibition of CYP2C19 (unknown origin); type: ADME
Sequence of Cytochrome P450 2C19 (P33261 whole entry): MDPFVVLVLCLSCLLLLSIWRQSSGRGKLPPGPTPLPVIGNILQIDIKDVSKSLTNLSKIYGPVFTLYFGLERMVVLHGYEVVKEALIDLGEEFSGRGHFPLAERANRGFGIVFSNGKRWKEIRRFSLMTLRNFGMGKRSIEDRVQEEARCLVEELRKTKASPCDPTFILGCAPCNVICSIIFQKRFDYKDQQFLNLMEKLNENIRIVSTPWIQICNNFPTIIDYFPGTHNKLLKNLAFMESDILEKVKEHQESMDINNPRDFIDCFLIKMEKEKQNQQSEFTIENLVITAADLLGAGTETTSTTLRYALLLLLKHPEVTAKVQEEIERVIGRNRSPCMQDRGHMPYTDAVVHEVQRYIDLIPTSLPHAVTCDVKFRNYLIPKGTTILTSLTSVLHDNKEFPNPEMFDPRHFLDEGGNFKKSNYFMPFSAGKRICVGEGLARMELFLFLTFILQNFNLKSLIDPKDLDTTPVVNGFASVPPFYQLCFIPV

[25] = Mutagenicity in Salmonella typhimurium TA1535 in absence of liver S9 fraction by AMES test; type: toxicity; conditions: salmonella enterica subsp. enterica serovar typhimurium
Cytochrome P450 2C9 = Cytochrome P450 2C9 (Homo sapiens, UniProt P11712); experiment: Inhibition of CYP2C9 (unknown origin); type: ADME
Cytochrome P450 1A2 = Cytochrome P450 1A2 (Homo sapiens, UniProt P05177); experiment: Inhibition of CYP1A2 (unknown origin); type: ADME
[26] = Mutagenicity in Escherichia coli WP2 uvrA in absence of liver S9 fraction by AMES test; type: toxicity
Cytochrome P450 2D6 = Cytochrome P450 2D6 (Homo sapiens, UniProt P10635); experiment: Inhibition of CYP2D6 (unknown origin); type: ADME
[27] = Mutagenicity in Salmonella typhimurium TA100 in absence of liver S9 fraction by AMES test; type: toxicity; conditions: salmonella enterica subsp. enterica serovar typhimurium
Estrogen receptor = Estrogen receptor (Homo sapiens, UniProt P03372); experiment: Antagonist activity at ERalpha (unknown origin)
[28] = Toxicity in BALB/c mouse xenografted with enzalutamide resistant human LNCaP C4-2B cells assessed as body weight loss at 10 to 30 mg/kg, po administered once daily for 28 days and measured every 3 days; type: organism-based; conditions: in vivo, 672 h, dose 10-30 mg/kg, time 28 day
[29] = Genotoxicity in CHL cells in presence of rat liver S9 fraction by micronucleus test; type: toxicity, Cricetulus griseus; conditions: chinese hamster
[30] = Mutagenicity in Escherichia coli WP2 uvrA in presence of liver S9 fraction by AMES test; type: toxicity, subcellular
[31] = Toxicity in SCID male mouse xenografted with human LNCaP/AR cells assessed as animal weight loss at 10 to 30 mg/kg, po administered once daily for 28 days and measured every 3 days; type: organism-based; conditions: in vivo, 672 h, dose 10-30 mg/kg, time 28 day
[32] = Mutagenicity in Salmonella typhimurium TA98 in presence of liver S9 fraction by AMES test; type: toxicity, subcellular; conditions: salmonella enterica subsp. enterica serovar typhimurium

SMILES: Cc1cn(C2=CCC3C4CC=C5C[C@@H](NC(=O)c6ccc(F)cc6F)CC[C@]5(C)C4CC[C@]23C)cn1 (stereo partly drawn)
- Activity [1]: Non-Toxic
- IC50 [2]: 0.127 µM
- Activity [3]: -65%
- IC50 (LNCaP): 0.327 µM
- inhibition in vivo at 10 mg/kg [4]: 50%
- Activity (Mus musculus): Active
- Activity [5]: Non-Toxic
- Activity [6]: inactive
- IC50 [7]: > 40 µM
- Cmax [8]: 1520 ng/mL
- Activity [9]: -65%
- Ratio [10]: 8.6
- Tmax [11]: 6 h
- EC50 (Androgen receptor): 1.68 µM
- half-life [12]: 6.02 h
- Activity [13]: 41.6%
- AUCt [14]: 22542 h/ng/mL

SMILES: Cc1cn(C2=CCC3C4CC=C5C[C@@H](NC(=O)c6ccc(F)cc6)CC[C@]5(C)C4CC[C@]23C)cn1 (stereo partly drawn)
- Activity [15]: Non-Toxic
- IC50 [2]: 0.1 µM
- Activity [16]: Non-Toxic
- IC50 (Glucocorticoid receptor): > 30 µM
- Activity [17]: Non-Toxic
- Activity [3]: -65%
- inhibition (INH) [18]: Not Active
- Activity [19]: Non-Toxic
- IC50 (LNCaP): 0.473 µM
- inhibition in vivo at 10 mg/kg [4]: 56%
- IC50 (Progesterone receptor): > 30 µM
- Activity [20]: Non-Toxic
- Activity [21]: Non-Toxic
- IC50 [7]: > 40 µM
- Activity [22]: Non-Toxic
- Cmax [8]: 6430 ng/mL
- IC50 (Cytochrome P450 3A4 [23]): 0.81 µM
- Activity [9]: -64%
- IC50 (Cytochrome P450 3A4 [24]): 1.25 µM
- IC50 (Cytochrome P450 2C19): 4.1 µM
- Activity [25]: Non-Toxic
- IC50 (Cytochrome P450 2C9): 30.8 µM
- Tmax [11]: 4 h
- IC50 (Cytochrome P450 1A2): 25 µM
- Activity [26]: Non-Toxic
- IC50 (Cytochrome P450 2D6): 50 µM
- Activity [27]: Non-Toxic
- EC50 (Androgen receptor): 1.28 µM
- half-life [12]: 3.28 h
- IC50 (Estrogen receptor): 0.103 µM
- Activity [28]: Non-Toxic
- Activity [29]: Non-Toxic
- AUCt [14]: 68872 h/ng/mL
- Activity [30]: Non-Toxic
- Activity [31]: Non-Toxic
- Activity [32]: Non-Toxic

From ChEMBL document CHEMBL5331145, “Discovery of a Novel Bifunctional Steroid Analog, YXG-158, as an Androgen Receptor Degrader and CYP17A1 Inhibitor for the Treatment of Enzalutamide-Resistant Prostate Cancer” (J Med Chem, 2023)
